Assays:
[1] = Gaston et al. 1994; cited from earlier work
room air-exposed mice = experiment: Lung mechanics: methacholine challenge in room air-exposed mice, flexiVent Rrs; format: in vivo, C57BL/6 mice; conditions: both ages (3 and 6 weeks), GSNO pretreatment, data not shown
Method: Animal protocols were approved by the Institutional Animal Care and Use Committee at Case Western Reserve University (Cleveland, Ohio). Timed pregnant C57BL/6 mice (Charles River Laboratories, Wilmington, Mass.) were maintained on 12-hour light-dark cycles with ad libitum standard food and water. Within 24 hours of birth, litters were pooled and randomized into exposure groups. Paired with a nursing dam, pups were raised in 60% oxygen or room air (21%) for 21 days. Hyperoxia-exposed animals were housed in standard cages placed in a 38-L Plexiglas chamber with a continuous flow of blended oxygen (2 L/min). Oxygen concentrations were monitored twice daily via an oxygen analyzer (miniOX I; MSA Medical, Gurnee, Ill.). […]
Under general anesthesia (i.p. ketamine/xylazine), mice were placed supine on a heated surgical table, tracheostomized, and ventilated via a 19-gauge blunt-tip cannula with a commercial rodent ventilator (flexiVent; SCIREQ, Montreal, Canada). […] Using computer software (flexiWare 5.1, Version 7.2, SCIREQ), five measurements of respiratory system resistance (Rrs) were calculated by a 2.5 Hz single-frequency forced oscillation maneuver (Snapshot 150), and an average was reported for each methacholine dose. […]
Data are expressed as means±S.E.M. A minimum of two litters or experiments was used for each study; n represent individual animals or cell transfections. […]

hyperoxia-exposed mice = experiment: Lung mechanics: methacholine challenge after neonatal hyperoxia (BPD model), flexiVent Rrs; format: in vivo, C57BL/6 mice; conditions: for Rrs in response to aerosolized methacholine challenge (airway hyperreactivity): 3-week-old mice raised in hyperoxia (60%), compared with room air controls; for Rrs increase in hyperoxia, methacholine dose response (FIG. 5A-B): at 3 weeks and after room air recovery at 6 weeks of age; for Rrs in response to aerosolized methacholine challenge (airway hyperresponsiveness): six-week-old mice, 3 weeks neonatal hyperoxia then room air recovery
Method: Animal protocols were approved by the Institutional Animal Care and Use Committee at Case Western Reserve University (Cleveland, Ohio). Timed pregnant C57BL/6 mice (Charles River Laboratories, Wilmington, Mass.) were maintained on 12-hour light-dark cycles with ad libitum standard food and water. Within 24 hours of birth, litters were pooled and randomized into exposure groups. Paired with a nursing dam, pups were raised in 60% oxygen or room air (21%) for 21 days. Hyperoxia-exposed animals were housed in standard cages placed in a 38-L Plexiglas chamber with a continuous flow of blended oxygen (2 L/min). Oxygen concentrations were monitored twice daily via an oxygen analyzer (miniOX I; MSA Medical, Gurnee, Ill.). To control for oxygen exposures, nursing dams were rotated between paired litters during weekly cage changes. Ventilator studies were conducted and/or tissue harvested within 24 hours of removal from hyperoxia at 3 weeks. A subgroup of animals was returned to room air following 3 weeks of initial hyperoxia exposure and subsequently recovered to 6 weeks of age for adult lung mechanic and GSNOR activity studies.
N6022 is a selective small molecule reversible inhibitor of GSNOR. Powdered N6022 (Nivalis Therapeutics, Boulder, Colo., purchased through MedChem Express, Monmouth Junction, N.J.) was reconstituted in sterile PBS (pH 7.4) and administered to hyperoxia exposed mice as a single 1 mg/kg i.p. injection the day prior to testing lung mechanics.
Under general anesthesia (i.p. ketamine/xylazine), mice were placed supine on a heated surgical table, tracheostomized, and ventilated via a 19-gauge blunt-tip cannula with a commercial rodent ventilator (flexiVent; SCIREQ, Montreal, Canada). Animals were paralyzed (i.p. pancuronium bromide; Sigma-Aldrich) and ventilated at default settings: tidal volume of 10 mL/kg, a rate of 150 breaths/min, a positive end expiratory pressure of 3 cm H2O, and a FiO2 of 50%. Following two recruitment deep inflations of sustained inspiration up to a pressure of 30 cm H2O for 3 seconds, 10 mM GSNO or saline vehicle was aerosolized over 10 seconds using an ultrasonic nebulizer (Aeroneb; SCIREQ) diverted into the ventilator's inspiratory flow. Inhaled GSNO concentration was chosen based upon the published studies in ventilated guinea pigs and human trials in cystic fibrosis. After 5 minutes had elapsed, two recruitment deep inflations were again delivered, and increasing methacholine doses of 0, 12.5, 25, 50, 100, and 200 mg/mL were similarly aerosolized over 10 seconds to generate a dose-response curve. Using computer software (flexiWare 5.1, Version 7.2, SCIREQ), five measurements of respiratory system resistance (Rrs) were calculated by a 2.5 Hz single-frequency forced oscillation maneuver (Snapshot 150), and an average was reported for each methacholine dose. Respiratory mechanics were measured in both 3-week-old mice immediately following sustained hyperoxia exposure and separate 6-week-old mice that were recovered in room air following the initial 3 weeks of hyperoxia exposure.
Data are expressed as means±S.E.M. A minimum of two litters or experiments was used for each study; n represent individual animals or cell transfections. Data containing two groups were first tested for normality and variance and then analyzed by two sample student t test, Welch's t test, or Mann-Whitney U test, as appropriate. For multiple comparisons, analysis of variance with Tukey-Kramer post hoc test was used. Alterations in airway reactivity with increasing doses of methacholine were compared by two-way analysis of variance repeated-measures analysis with Tukey-Kramer post hoc comparisons using a fixed-sequence method from highest to lowest methacholine dose. P, 0.05 was considered statistically significant.

| Compound | bronchodilator potency relative to theophylline [1] [fold] | Rrs compared with room air saline-treated controls (room air-exposed mice) | Rrs in response to aerosolized methacholine challenge (airway hyperreactivity) (hyperoxia-exposed mice; pretreatment 10 mM GSNO aerosol over 10 seconds) | Rrs increase in hyperoxia, methacholine dose response (FIG. 5A-B) (hyperoxia-exposed mice; 10 mM GSNO aerosol) | Rrs in response to aerosolized methacholine challenge (airway hyperresponsiveness) (hyperoxia-exposed mice; pretreatment 10 mM GSNO aerosol) | Rrs in response to aerosolized methacholine challenge (airway hyperreactivity) (hyperoxia-exposed mice; single 1 mg/kg i.p. injection the day prior) | Rrs increase in hyperoxia, methacholine dose response (FIG. 5A-B) (hyperoxia-exposed mice; 1 mg/kg N6022 injection) | Rrs in response to aerosolized methacholine challenge (airway hyperresponsiveness) (hyperoxia-exposed mice; 1 mg/kg i.p. injection) |
| --- | --- | --- | --- | --- | --- | --- | --- | --- |
| N[C@@H](CCC(=O)N[C@@H](CSN=O)C(=O)NCC(=O)O)C(=O)O [GSNO, S-nitrosoglutathione] | 100 | did not significantly change Rrs | attenuated these changes, such that this group was no longer significantly different from room air controls, except at the highest methacholine dose (200 mg/mL) | attenuated these changes | remained effective in attenuating the hyperoxia induced airway hyperresponsiveness | – | – | – |
| Cc1cc(C(N)=O)ccc1-n1c(CCC(=O)O)ccc1-c1ccc(-n2ccnc2)cc1 [N6022, reference compound] | – | – | – | – | – | attenuated these changes as well, such that this group was no longer significantly different from room air controls at all methacholine doses | attenuated these changes | remained effective in attenuating the hyperoxia induced airway hyperresponsiveness |
